Laboratory results from patent publication US4772586A, “Novel derivatives of arginine vasopressin antagonists” (Medical College of Ohio, priority 1986, dated 1988).
*1 amine or outer side, *2 acyl side, *3 side chain or, on linkers, in order; H or OH if unused. Where a SMILES comes first, the peptide text is derived from it. Bridges are numbered along the chain shown (N, C = ends). [ ]: non-standard residue; d: D form. The star is where a group is joined. Ethylenediamine = C(CN[*:2])N[*:1]; X1 = O=C(CC1(S[*:2])CCCCC1)[*:1]; NH(CH2)4NH2 = NCCCCN*; βAla = NCCC(=O)O; NHBu = CCCCN*

How the values were obtained:
[1] = system: antidiuretic response to arginine vasopressin; test: Antagonism of the antidiuretic response to arginine vasopressin (Anti-ADH); assay type: in vivo, rats; details: for Anti-ADH Potency pA2: estimated in vivo pA2; for Anti-ADH pA2: Table 1, estimated in vivo pA2 = negative log of effective dose divided by volume of distribution (67 ml/kg)
Experimental: Activity as antidiuretic agonists was determined by intravenous injection of the compounds being evaluated in ethanol-anesthesized water-loaded rats in accordance with Sawyer, Endocrinology, vol. 63 (1958) at 694. Antagonism of the antidiuretic response to subsequent injections of arginine vasopressin was tested by the method of Sawyer et al., Science, vol. 212 (1981) at 49.
(§1) Antagonistic potencies were determined and expressed as "effective doses" and pA2 values. The "effective dose" is defined as the dose (in nanomoles per kilogram) that reduces the response seen from 2x units of agonist injected 20 min after the dose of antagonist to the response with 1x units of agonist. Estimated in vivo "pA2 " values represent the negative logarithms of the effective doses, divided by the estimated volume of distribution (67 ml/kg).

[2] = system: vasopressor response to arginine vasopressin; test: Antagonism to the vasopressor response (Anti-VP); assay type: in vivo; details: estimated in vivo pA2; for Anti-VP pA2: Table 1
Experimental: Antagonism to the vasopressor response was estimated in accordance with Dyckes et al., J. Med. Chem., vol. 17 (1974) at 969. The values are expressed as pA2 values, defined as in Schild et al., Br. J. Pharmacol., vol. 2 (1947) at 189.
as §1

CCOc1ccc(C[C@H]2NC(=O)CC3(CCCCC3)SSC[C@@H](C(=O)N3CCC[C@H]3C(=O)N[C@@H](CCCNC(=N)N)C(=O)NCCC(=O)NC)NC(=O)[C@H](CC(N)=O)NC(=O)[C@H](C(C)C)NC(=O)[C@H](Cc3ccccc3)NC2=O)cc1 [1-(beta-mercapto-beta,beta-cyclopentamethyleneproprionic acid), 2-D-(O-ethyl)tyrosine, 4-valine, 9-beta-alanine-N-methylamide]-arginine vasopressin] ([dY](Et)FVNCPR[βAla]-NHMe; linker N-5 via X1)
Anti-ADH Potency pA2 ([1]; Table 4): 7.61 ± 0.02
Anti-VP Potency pA2 ([2]; Table 4, ^+ = mixed): 7.77 ± 0.05

CC[C@H](C)[C@@H]1NC(=O)[C@H](Cc2ccccc2)NC(=O)[C@@H](Cc2ccccc2)NC(=O)CC2(CCCCC2)SSC[C@@H](C(=O)N2CCC[C@H]2C(=O)N[C@@H](CCCNC(=N)N)C(=O)N[C@H](C(N)=O)[C@@H](C)O)NC(=O)[C@H](CC(N)=O)NC1=O [Thr(NH2), [1-(beta-mercapto-beta,beta-cyclopentamethylenepropionic acid), 2-D-phenylalanine, 4-isoleucine, 9-threoinamide]-arginine vasopressin] ([dF]FINCPRT-NH2; linker N-5 via X1)
Anti-ADH Potency pA2 ([1]; Table 2): 7.39 ± 0.04
Anti-VP Potency pA2 ([2]; Table 2): 7.64 ± 0.11

CC[C@H](C)[C@@H]1NC(=O)[C@H](Cc2ccccc2)NC(=O)[C@@H](Cc2ccccc2)NC(=O)CC2(CCCCC2)SSC[C@@H](C(=O)N2CCC[C@H]2C(=O)N[C@@H](CCCNC(=N)N)C(=O)N[C@@H](Cc2ccc(O)cc2)C(N)=O)NC(=O)[C@H](CC(N)=O)NC1=O [Tyr(NH2), [1-(beta-mercapto-beta,beta-cyclopentamethylenepropionic acid), 2-D-phenylalanine, 4-isoleucine, 9-tyrosinamide]-arginine vasopressin] ([dF]FINCPRY-NH2; linker N-5 via X1)
Anti-ADH Potency pA2 ([1]; Table 2): 7.85 ± 0.06
Anti-VP Potency pA2 ([2]; Table 2): 7.27 ± 0.05

CC[C@H](C)[C@@H]1NC(=O)[C@H](Cc2ccccc2)NC(=O)[C@@H](Cc2ccccc2)NC(=O)CC2(CCCCC2)SSC[C@@H](C(=O)N2CCC[C@H]2C(=O)N[C@@H](CCCNC(=N)N)C(=O)NCCN)NC(=O)[C@H](CC(N)=O)NC1=O [[1-(beta-mercapto-beta,beta-cyclopentamethylenepropionic acid), 2-D-phenylalanine, 4-isoleucine, 8-arginine-N-(beta-amino)ethylamide, 9-desglycinamide] vasopressin] ([dF]FINCPR-Ethylenediamine; linker N-5 via X1)
Anti-ADH Potency pA2 ([1]; Table 4): 8.11 ± 0.06
Anti-VP Potency pA2 ([2]; Table 4, ^+ = mixed): 7.89 ± 0.04

CCOc1ccc(C[C@H]2NC(=O)CC3(CCCCC3)SSC[C@@H](C(=O)N3CCC[C@H]3C(=O)N[C@@H](CCCNC(=N)N)C(=O)N[C@@H](C)C(=O)NC)NC(=O)[C@H](CC(N)=O)NC(=O)[C@H](C(C)C)NC(=O)[C@H](Cc3ccccc3)NC2=O)cc1 [[1-(beta-mercapto-beta,beta-cyclopentamethylenepropionic acid), 2-D-(O-ethyl)tyrosine, 4-valine, 9-alanine-N-methylamide]-arginine vasopressin] ([dY](Et)FVNCPRA-NHMe; linker N-5 via X1)
Anti-ADH Potency pA2 ([1]; Table 4): 7.92 ± 0.06
Anti-VP Potency pA2 ([2]; Table 4, ^+ = mixed): 8.17 ± 0.04

COc1ccc(C[C@@H]2NC(=O)CC3(CCCCC3)SSC[C@@H](C(=O)N3CCC[C@H]3C(=O)N[C@@H](CCCNC(=N)N)C(N)=O)NC(=O)[C@H](CC(N)=O)NC(=O)[C@H](CCC(N)=O)NC(=O)[C@H](Cc3ccccc3)NC2=O)cc1 [desGly^9 d(CH2)5 [Tyr(Me)^2]AVP, [1-(beta-mercapto-beta,beta-cyclopentamethylenepropionic acid), 2-(O-methyl)tyrosine, 9-desglycine]-arginine vasopressin] (Y(Me)FQNCPR-NH2; linker N-5 via X1)
Anti-ADH pA2 [1]: ~ 6.1
Anti-VP pA2 [2]: 8.44 ± 0.10

CC[C@H](C)[C@@H]1NC(=O)[C@H](Cc2ccccc2)NC(=O)[C@@H](Cc2ccccc2)NC(=O)CC2(CCCCC2)SSC[C@@H](C(=O)N2CCC[C@H]2C(=O)N[C@@H](CCCNC(=N)N)C(=O)NCCCCN)NC(=O)[C@H](CC(N)=O)NC1=O [[1-(beta-mercapto-beta,beta-cyclopentamethylenepropionic acid), 2-D-phenylalanine, 4-isoleucine, 8-arginine-N-(delta-amino)butylamide, 9-desglycinamide] vasopressin] ([dF]FINCPR-{NH(CH2)4NH2}; linker N-5 via X1)
Anti-ADH Potency pA2 ([1]; Table 4): 8.11 ± 0.03
Anti-VP Potency pA2 ([2]; Table 4, ^+ = mixed): 7.61 ± 0.08

CC[C@H](C)[C@@H]1NC(=O)[C@H](Cc2ccccc2)NC(=O)[C@@H](Cc2ccccc2)NC(=O)CC2(CCCCC2)SSC[C@@H](C(=O)N2CCC[C@H]2C(=O)N[C@@H](CCCNC(=N)N)C(=O)N[C@@H](CCCNC(=N)N)C(N)=O)NC(=O)[C@H](CC(N)=O)NC1=O [Arg(NH2), [1-(beta-mercapto-beta,beta-cyclopentamethylenepropionic acid), 2-D-phenylalanine, 4-isoleucine, 9-argininamide]-arginine vasopressin] ([dF]FINCPRR-NH2; linker N-5 via X1)
Anti-ADH Potency pA2 ([1]; Table 2): 8.05 ± 0.11
Anti-VP Potency pA2 ([2]; Table 2): 8.11 ± 0.07

CCOc1ccc(C[C@@H]2NC(=O)CC3(CCCCC3)SSC[C@@H](C(=O)N3CCC[C@H]3C(=O)N[C@@H](CCCNC(=N)N)C(=O)NCC(N)=O)NC(=O)[C@H](CC(N)=O)NC(=O)[C@H](C(C)C)NC(=O)[C@H](Cc3ccccc3)NC2=O)cc1 [d(CH2)5 [Tyr(Et)]^2 VAVP, [1-(beta-mercapto-beta,beta-cyclopentamethylenepropionic acid), 2-(O-ethyl)tyrosine, 4-valine]-arginine vasopressin, reference compound] (Y(Et)FVNCPRG-NH2; linker N-5 via X1)
Anti-ADH pA2 [1]: 7.57 ± 0.06
Anti-VP pA2 [2]: 8.16 ± 0.09

CCOc1ccc(C[C@@H]2NC(=O)CC3(CCCCC3)SSC[C@@H](C(=O)N3CCC[C@H]3C(=O)N[C@@H](CCCNC(=N)N)C(N)=O)NC(=O)[C@H](CC(N)=O)NC(=O)[C@H](C(C)C)NC(=O)[C@H](Cc3ccccc3)NC2=O)cc1 [desGly^9 d(CH2)5 [Tyr(Et)^2]VAVP, [1-(beta-mercapto-beta,beta-cyclopentamethylenepropionic acid), 2-(O-ethyl)tyrosine, 4-valine, 9-desglycine]-arginine vasopressin] (Y(Et)FVNCPR-NH2; linker N-5 via X1)
Anti-ADH pA2 [1]: 7.89 ± 0.09
Anti-VP pA2 [2]: 8.18 ± 0.02

CC[C@H](C)[C@@H]1NC(=O)[C@H](Cc2ccccc2)NC(=O)[C@@H](Cc2ccccc2)NC(=O)CC2(CCCCC2)SSC[C@@H](C(=O)N2CCC[C@H]2C(=O)N[C@@H](CCCNC(=N)N)C(=O)N[C@H](C(N)=O)C(C)C)NC(=O)[C@H](CC(N)=O)NC1=O [Val(NH2), [1-(beta-mercapto-beta,beta-cyclopentamethylenepropionic acid), 2-D-phenylalanine, 4-isoleucine, 9-valinamide]-arginine vasopressin] ([dF]FINCPRV-NH2; linker N-5 via X1)
Anti-ADH Potency pA2 ([1]; Table 2): 8.11 ± 0.11
Anti-VP Potency pA2 ([2]; Table 2): 7.66 ± 0.10

CCCCNC(=O)CNC(=O)[C@H](CCCNC(=N)N)NC(=O)[C@@H]1CCCN1C(=O)[C@@H]1CSSC2(CCCCC2)CC(=O)N[C@H](Cc2ccccc2)C(=O)N[C@@H](Cc2ccccc2)C(=O)N[C@@H]([C@@H](C)CC)C(=O)N[C@@H](CC(N)=O)C(=O)N1 [[1-(beta-mercapto-beta,beta-cyclopentamethylenepropionic acid), 2-D-phenylalanine, 4-isoleucine, 9-glycine-N-(n-butyl)amide]-arginine vasopressin] ([dF]FINCPRG-NHBu; linker N-5 via X1)
Anti-ADH Potency pA2 ([1]; Table 4): 7.66 ± 0.05
Anti-VP Potency pA2 ([2]; Table 4, ^+ = mixed): 6.80 ± 0.08

CC[C@H](C)[C@@H]1NC(=O)[C@H](Cc2ccccc2)NC(=O)[C@@H](Cc2ccccc2)NC(=O)CC2(CCCCC2)SSC[C@@H](C(=O)N2CCC[C@H]2C(=O)N[C@@H](CCCNC(=N)N)C(=O)NCC(=O)NC)NC(=O)[C@H](CC(N)=O)NC1=O [[1-(beta-mercapto-beta,beta-cyclopentamethylenepropionic acid), 2-D-phenylalanine, 4-isoleucine, 9-glycine-N-methylamide]-arginine vasopressin] ([dF]FINCPRG-NHMe; linker N-5 via X1)
Anti-ADH Potency pA2 ([1]; Table 4): 8.07 ± 0.07
Anti-VP Potency pA2 ([2]; Table 4, ^+ = mixed): 6.22

CC(C)[C@@H]1NC(=O)[C@H](Cc2ccccc2)NC(=O)[C@@H](Cc2ccccc2)NC(=O)CC2(CCCCC2)SSC[C@@H](C(=O)N2CCC[C@H]2C(=O)N[C@@H](CCCNC(=N)N)C(=O)O)NC(=O)[C@H](CC(N)=O)NC1=O [desGly(NH2)^9 d(CH2)5 [D-Phe^2]VAVP, [1-(beta-mercapto-beta,beta-cyclopentamethylenepropionic acid), 2-D-phenylalanine, 4-valine, 9-desglycinamide]-arginine vasopressin] ([dF]FVNCPR-OH; linker N-5 via X1)
Anti-ADH pA2 [1]: 7.75 ± 0.11
Anti-VP pA2 [2]: 7.93 ± 0.05

CNC(=O)[C@H](CCCNC(=N)N)NC(=O)[C@@H]1CCCN1C(=O)[C@@H]1CSSC2(CCCCC2)CC(=O)N[C@@H](Cc2ccc(OC)cc2)C(=O)N[C@@H](Cc2ccccc2)C(=O)N[C@@H](CCC(N)=O)C(=O)N[C@@H](CC(N)=O)C(=O)N1 [[1-(beta-mercapto-beta,beta-cyclopentamethylenepropionic acid), 2-(O-methyl)tyrosine, 8-arginine-N-methylamide, 9-desglycinamide] vasopressin] (Y(Me)FQNCPR-NHMe; linker N-5 via X1)
Anti-ADH Potency pA2 ([1]; Table 4): ~ 5.9
Anti-VP Potency pA2 ([2]; Table 4, ^+ = mixed): 8.73 ± 0.02
